The text below walks through data of ChEMBL document CHEMBL1126158, “Conformational analyses and molecular-shape comparisons of a series of indanone-benzylpiperidine inhibitors of acetylcholinesterase” (J Med Chem, 1992).

The assay addresses Acetylcholinesterase (Homo sapiens, UniProt P22303). Nature of the assay: Inhibition of acetylcholinesterase activity.

Sequence of Acetylcholinesterase (P22303 whole entry): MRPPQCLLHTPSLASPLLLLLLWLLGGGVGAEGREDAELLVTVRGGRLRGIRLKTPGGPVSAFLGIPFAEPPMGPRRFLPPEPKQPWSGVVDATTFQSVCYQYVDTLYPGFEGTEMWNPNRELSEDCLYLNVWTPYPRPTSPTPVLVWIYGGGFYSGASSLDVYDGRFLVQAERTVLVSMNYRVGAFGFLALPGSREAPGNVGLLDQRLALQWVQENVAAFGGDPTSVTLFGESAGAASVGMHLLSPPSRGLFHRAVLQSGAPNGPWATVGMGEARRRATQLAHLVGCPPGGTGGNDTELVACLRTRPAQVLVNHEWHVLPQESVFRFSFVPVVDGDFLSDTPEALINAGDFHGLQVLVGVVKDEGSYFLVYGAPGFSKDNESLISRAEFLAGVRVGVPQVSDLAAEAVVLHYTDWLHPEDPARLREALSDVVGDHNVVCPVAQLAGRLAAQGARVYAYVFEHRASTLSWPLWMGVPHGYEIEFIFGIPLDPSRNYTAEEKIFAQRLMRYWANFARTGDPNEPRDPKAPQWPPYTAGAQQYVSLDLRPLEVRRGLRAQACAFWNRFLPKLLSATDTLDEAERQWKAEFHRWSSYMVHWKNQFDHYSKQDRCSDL

As usually defined, the IC50 is the concentration needed to halve the response being measured. `CN1CCC(C[C@@H]2Cc3ccccc3C2=O)CC1` showed an IC50 of 5.3 nM.

With `CC1CCN(Cc2cccc3ccccc23)CC1`, half-maximal inhibition (IC50) required 220 nM. The compound `CC1CCN(Cc2ccc3ccccc3c2)CC1` gave an IC50 of 2900 nM. This IC50 is about 13-fold higher than that of the compound before. `CN1CCC(/C=C/C=C2\Cc3ccccc3C2=O)CC1` yielded an IC50 of 3 nM. Compound `CN1CCC(CC/C=C2\Cc3ccccc3C2=O)CC1` showed an IC50 of 0.82 nM. This IC50 lies about 3.7-fold lower than the previous one. As for `CN1CCN(CC2Cc3ccccc3C2=O)CC1` (centres undefined), the midpoint of inhibition, the IC50, lay at 94 nM.

Take `CC1CCN(CC2Cc3ccccc3C2=O)CC1` (centres undefined): inhibition was half-maximal at 480 nM (IC50). With `CN1CCC(/C=C2\Cc3ccccc3C2=O)CC1` the figure was 8.4 nM. `CN1CCC(=C2Cc3ccccc3C2=O)CC1` showed an IC50 of 1200 nM. Regarding `Cc1ccccc1CN1CCC(C)CC1`, the IC50 was found to be 10 nM. Against the preceding compound, the IC50 is about 120-fold lower. `CC1CCN(Cc2ccccc2)CC1` displayed an IC50 of 5.3 nM. Compared with the last compound, the IC50 is about 1.9-fold lower.

`CN1CCC(CCC2C(=O)Nc3ccccc3C2=O)CC1` (centres undefined): the IC50 was 4.2 nM. The result for `CN1CCC(CCCC2Cc3ccccc3C2=O)CC1` (centres undefined) reads 1.5 nM. In turn, `CC1CCN(CCc2ccccc2)CC1` gave an IC50 of 180 nM. As for `CC1CCN(CC2CCCCC2)CC1`, the IC50 was found to be 8.9 nM. Take `CN1CCC(CCN2C(=O)c3ccccc3C2=O)CC1`: the IC50 turned out to be 0.9 nM. With `CN1CCC(C[C@H]2Cc3ccccc3C2=O)CC1` the figure was 7.7 nM.

Turning to `CC1CCN(Cc2ccccc2[N+](=O)[O-])CC1`, the IC50 is 160 nM. `CN1CCC(C2Cc3ccccc3C2=O)CC1` (centres undefined): it took 3300 nM to reach half-maximal inhibition (IC50).
